From patent US7064124B2, “NF-κB inhibitor containing substituted benzoic acid derivative as active ingredient” (Daiichi Suntory Pharma Co., Ltd., priority 2001, dated 2006)
≈ marks a conversion by molar mass, not a printed value.

Tests used:
NF-κB = NF-κB luciferase reporter assay in A549/NF-κBLuc cells stimulated with IL-1β; format: cell-based, human; settings: Homo sapiens, A549, A549/NF-κBLuc cells; compound added 1 hour before IL-1β, then 3 hours incubation; luciferase activity; read-out: NF-κB Inhibitory Activity (IC50)
Procedure: Effect on Human Lung Cancer-Derived Cell A549 (A549/NF-κBluc) Containing Stably Introduced Luciferase Plasmid (pNFκB-Luc, Stratagene. U.S.A.) Regulated by NF-κB Binding Sequence
Using Lipofectamine (Lifetech Oriental, Tokyo), pNFκB-Luc and pSV2neo (Clontech, U.S.A.) were co-transfected into the A549 cell (ATCC CCL185) and G418 sulfate (1 mg/ml, Lifetech Oriental) was added to the culture medium to select cells containing stably introduced pNFκB-Luc A549/NF-κBLuc.
The compound obtained in Examples each was added to A549/NF-κBLuc and one hour after that, IL-1β capable of activating NF-κB was added. The incubation was further continued for 3 hours.
NF-κB Inhibitory Activity (IC50) of Substituted Benzoic Acid Derivitives: […]

Row | Structure (SMILES) | IC50 (NF-κB) [µg/mL] | melting point [°C]
1 | COC1=C(OC)C(=O)C(Cc2ccc(O)c(C(=O)Nc3ccccc3C(F)(F)F)c2)=C(C)C1=O [Example 146, N-[5-(5,6-Dimethoxy-3-methyl-1,4-benzoquinon-2-yl)methyl-2-hydroxybenzoyl]-2-trifluoromethylaniline] | 11 (≈ 23.1 µM) | 111 to 114
2 | CCOC(=O)c1ccc(NC(=O)c2cc(CC3=C(C)C(=O)C(OC)=C(OC)C3=O)ccc2OC(C)=O)cc1 [Example 147, Ethyl N-[5-(5,6-dimethoxy-3-methyl-1,4-benzoquinon-2-yl)methyl-2-acetoxybenzoyl]-4-aminobenzoate] | 19 (≈ 36.4 µM) | 154 to 156.5
3 | CCOC(=O)c1ccc(NC(=O)c2cc(CC3=C(C)C(=O)C(OC)=C(OC)C3=O)ccc2O)cc1 [Example 148] | 3 (≈ 6.26 µM) | 176 to 179
4 | COC1=C(OC)C(=O)C(Cc2ccc(OC(C)=O)c(C(=O)Nc3ccc(CC#N)cc3)c2)=C(C)C1=O [Example 149, N-[5-(5,6-Dimethoxy-3-methyl-1,4-benzoquinon-2-yl)methyl-2-acetoxybenzoyl]-4-cyanomethylaniline] | 25 (≈ 51.2 µM) | 125 to 128
5 | COC1=C(OC)C(=O)C(Cc2ccc(O)c(C(=O)Nc3ccc(CC#N)cc3)c2)=C(C)C1=O [Example 150, N-[5-(5,6-Dimethoxy-3-methyl-1,4-benzoquinon-2-yl)methyl-2-hydroxybenzoyl]-4-cyanomethylaniline] | 4 (≈ 8.96 µM) | 164.5 to 166
6 | COC1=C(OC)C(=O)C(Cc2ccc(OCc3cccnc3)c(C(=O)NC3CCCCC3)c2)=C(C)C1=O [Example 171, N-Cyclohexyl-5-(5,6-dimethoxy-3-methyl-1,4-benzoquinon-2-yl)methyl-2-(3-pyridylmethyloxy)benzamide] | 26 (≈ 51.5 µM) | 115 to 118
7 | COC1=C(OC)C(=O)C(Cc2ccc(OC(C)=O)c(C(=O)Nc3ccc(S(=O)(=O)C(F)(F)F)cc3)c2)=C(C)C1=O [Example 173, N-[5-(5,6-Dimethoxy-3-methyl-1,4-benzoquinon-2-yl)methyl-2-acetoxybenzoyl]-4-(trifluoromethylsulfonyl)aniline] | 9 (≈ 15.5 µM) | 84.5 to 87
8 | COC1=C(OC)C(=O)C(Cc2ccc(O)c(C(=O)Nc3ccc(S(=O)(=O)C(F)(F)F)cc3)c2)=C(C)C1=O [Example 174, N-[5-(5,6-Dimethoxy-3-methyl-1,4-benzoquinon-2-yl)methyl-2-hydroxybenzoyl]-4-(trifluoromethylsulfonyl)aniline] | 6 (≈ 11.1 µM) | 223 to 225.5
9 | COC1=C(OC)C(=O)C(Cc2ccc(OC(C)=O)c(C(=O)Nc3ccc(OC)nc3)c2)=C(C)C1=O [Example 180] | 23 (≈ 47.9 µM) | 104.5 to 107.5
10 | COC1=C(OC)C(=O)C(Cc2ccc(O)c(C(=O)Nc3ccc(OC)nc3)c2)=C(C)C1=O [Example 181, N-(6-Methoxypyridin-3-yl)-5-(5,6-dimethoxy-3-methyl-1,4-benzoquinon-2-yl)methyl-2-hydroxybenzamide] | 11 (≈ 25.1 µM) | 169 to 170
11 | COC1=C(OC)C(=O)C(Cc2ccc(OC(C)=O)c(C(=O)Nc3ccc(Cl)nc3)c2)=C(C)C1=O [Example 184, N-(6-Chloropyridin-3-yl)-5-(5,6-dimethoxy-3-methyl-1,4-benzoquinon-2-yl)methyl-2-acetoxybenzamide] | 56 (≈ 115 µM) | 74.5 to 77.5
12 | COC1=C(OC)C(=O)C(Cc2ccc(OC(C)=O)c(C(=O)Nc3cccnc3Cl)c2)=C(C)C1=O [Example 186, N-(2-Chloropyridin-3-yl)-5-(5,6-dimethoxy-3-methyl-1,4-benzoquinon-2-yl)methyl-2-acetoxybenzamide] | 2 (≈ 4.12 µM) | 128.5 to 130
13 | COC1=C(OC)C(=O)C(Cc2ccc(O)c(C(=O)Nc3cccnc3Cl)c2)=C(C)C1=O [Example 187, N-(2-Chloropyridin-3-yl)-5-(5,6-dimethoxy-3-methyl-1,4-benzoquinon-2-yl)methyl-2-hydroxybenzamide] | 2 (≈ 4.52 µM) | 152 to 154
14 | COC1=C(OC)C(=O)C(Cc2ccc(OC(C)=O)c(C(=O)Nc3ccc(C(=O)OC(C)(C)C)cc3)c2)=C(C)C1=O [Example 188, tert-Butyl N-[5-(5,6-dimethoxy-3-methyl-1,4-benzoquinon-2-yl)methyl-2-acetoxybenzoyl]-4-aminobenzoate] | 9 (≈ 16.4 µM) | 78.5 to 81
15 | COC1=C(OC)C(=O)C(Cc2ccc(OC(C)=O)c(C(=O)Nc3ccc(NC(=O)OC(C)(C)C)cc3)c2)=C(C)C1=O [Example 199, N-[5-(5,6-Dimethoxy-3-methyl-1,4-benzoquinon-2-yl)methyl-2-acetoxybenzoyl]-4-(tert-butoxycarbonyl)aminoaniline] | 16 (≈ 28.3 µM) | 188.5 to 191
16 | COC1=C(OC)C(=O)C(Cc2ccc(O)c(C(=O)Nc3ccc(NC(=O)OC(C)(C)C)cc3)c2)=C(C)C1=O [Example 200, N-[5-(5,6-Dimethoxy-3-methyl-1,4-benzoquinon-2-yl)methyl-2-hydroxybenzoyl]-4-(tert-butoxycarbonyl)aminoaniline] | 17 (≈ 32.5 µM) | 127 to 129
17 | COC1=C(OC)C(=O)C(Cc2cccc(C(=O)Nc3cccnc3)c2O)=C(C)C1=O [Example 207, N-(Pyridin-3-yl)-3-(5,6-dimethoxy-3-methyl-1,4-benzoquinon-2-yl)methyl-2-hydroxybenzamide] | 98 (≈ 240 µM) | 169 to 171
18 | COC1=C(OC)C(=O)C(Cc2ccc(OC(C)=O)c(C(=O)Nc3ccc(-n4ccnc4)cc3)c2)=C(C)C1=O [Example 208, N-[5-(5,6-Dimethoxy-3-methyl-1,4-benzoquinon-2-yl)methyl-2-acetoxybenzoyl]-4-(imidazol-1-yl)aniline] | 19 (≈ 36.9 µM) | 116.5 to 118.5
19 | CC(=O)Oc1ccc(CC2=C(C)C(=O)C(C)=C(C)C2=O)cc1C(=O)O [Example 233, 5-(3,5,6-Trimethyl-1,4-benzoquinon-2-yl)methyl-2-acetoxybenzoic acid] | – | 157 to 159.5
20 | CC(=O)Oc1ccc(CC2=C(C)C(=O)C(C)=C(C)C2=O)cc1C(=O)Nc1ccc(C(F)(F)F)cc1 [Example 234, N-[5-(3,5,6-Trimethyl-1,4-benzoquinon-2-yl)methyl-2-acetoxybenzoyl]-4-trifluoromethylaniline] | – | 180 to 181
21 | CC(=O)Oc1ccc(CC2=C(C)C(=O)C(C)=C(C)C2=O)cc1C(=O)Nc1cccnc1Cl [Example 236, N-(2-Chloropyridin-3-yl)-5-(3,5,6-trimethyl-1,4-benzoquinon-2-yl)methyl-2-acetoxybenzamide] | – | 130 to 131

Now from value to compound:

Row | IC50 (NF-κB) [µg/mL] | melting point [°C] | Structure (SMILES)
22 | 9 (≈ 21.2 µM) | 125 to 127 | COC1=C(OC)C(=O)C(Cc2ccc(O)c(C(=O)Nc3ccc(F)cc3)c2)=C(C)C1=O [Example 142, N-[5-(5,6-Dimethoxy-3-methyl-1,4-benzoquinon-2-yl)methyl-2-hydroxybenzoyl]-4-fluoroaniline]
23 | 7 (≈ 17.1 µM) | 119 to 122.5 | COC1=C(OC)C(=O)C(Cc2ccc(O)c(C(=O)Nc3cccnc3)c2)=C(C)C1=O [Example 158, N-(Pyridin-3-yl)-5-(5,6-dimethoxy-3-methyl-1,4-benzoquinon-2-yl)methyl-2-hydroxybenzamide]
24 | 11 (≈ 24.8 µM) | 166 to 169 | COC1=C(OC)C(=O)C(Cc2ccc(O)c(C(=O)Nc3ccc(Cl)nc3)c2)=C(C)C1=O [Example 185, N-(6-Chloropyridin-3-yl)-5-(5,6-dimethoxy-3-methyl-1,4-benzoquinon-2-yl)methyl-2-hydroxybenzamide]
25 | 4 (≈ 8.84 µM) | 213.5 to 215.5 | COC1=C(OC)C(=O)C(Cc2ccc(O)c(C(=O)Nc3ccc([N+](=O)[O-])cc3)c2)=C(C)C1=O [Example 191, N-[5-(5,6-Dimethoxy-3-methyl-1,4-benzoquinon-2-yl)methyl-2-hydroxybenzoyl]-4-nitroaniline]
26 | 20 | 149.5 to 152 | COC1=C(OC)C(=O)C(Cc2ccc(O)c(C(=O)Nc3cccnc3)c2)=C(C)C1=O.CS(=O)(=O)O [Example 202, N-(Pyridin-3-yl)-5-(5,6-dimethoxy-3-methyl-1,4-benzoquinon-2-yl)methyl-2-hydroxybenzamide (methanesulfonate)]
27 | 30 | 199.5 to 201.5 | COC1=C(OC)C(=O)C(Cc2ccc(O)c(C(=O)Nc3ccncc3)c2)=C(C)C1=O.CS(=O)(=O)O [Example 203, N-(Pyridin-4-yl)-5-(5,6-dimethoxy-3-methyl-1,4-benzoquinon-2-yl)methyl-2-hydroxybenzamide (methanesulfonate)]
28 | 50 | 162 to 164 | COC1=C(OC)C(=O)C(Cc2ccc(O)c(C(=O)Nc3ccc(N)cc3)c2)=C(C)C1=O.Cl [Example 205, N-[5-(5,6-Dimethoxy-3-methyl-1,4-benzoquinon-2-yl)methyl-2-hydroxybenzoyl]-p-phenylenediamine (hydrochloride)]
29 | – | 218 to 220.5 | COC1=C(OC)C(=O)C(Cc2ccc(O)c(C(=O)Nc3ccnc(OC)c3)c2)=C(C)C1=O [Example 231, N-(2-Methoxypyridin-4-yl)-5-(5,6-dimethoxy-3-methyl-1,4-benzoquinon-2-yl)methyl-2-hydroxybenzamide]
30 | – | 245 to 247 | CC1=C(C)C(=O)C(Cc2ccc(O)c(C(=O)Nc3ccncc3)c2)=C(C)C1=O [Example 238, N-(Pyridin-4-yl)-5-(3,5,6-trimethyl-1,4-benzoquinon-2-yl)methyl-2-hydroxybenzamide]
